Test results: ChEMBL document CHEMBL5537115, “New broad-spectrum and potent antibacterial agents with dual-targeting mechanism: Promoting FtsZ polymerization and disrupting bacterial membranes” (Eur J Med Chem, 2024)
Activity calls are given as the source filed them. The calls are words filed in the database; no cut-off is given here.

What was measured:
[1] = system: Enterococcus faecium; assay: Antibacterial activity against vancomycin-resistant Enterococcus faecium ATCC51559 assessed as bacterial growth inhibition incubated for 20 hrs by CLSI based broth microdilution method; assay type: functional
[2] = system: Staphylococcus epidermidis; assay: Antibacterial activity against penicillin-resistant Staphylococcus epidermidis clinical isolate assessed as bacterial growth inhibition incubated for 20 hrs by CLSI based broth microdilution method; assay type: functional
[3] = system: Staphylococcus aureus; assay: Antibacterial activity against methicillin-resistant Staphylococcus aureus ATCC43300 assessed as bacterial growth inhibition incubated for 20 hrs by CLSI based broth microdilution method; assay type: functional
[4] = system: Escherichia coli; assay: Antibacterial activity against wild-type Escherichia coli BW25113 assessed as bacterial growth inhibition incubated for 20 hrs by CLSI based broth microdilution method; assay type: functional
[5] = system: Staphylococcus aureus; assay: Induction of membrane potential depolarization in Staphylococcus aureus ATCC25923 measured after 20 mins by diSC35 dye based spectroscopy; assay type: functional, organism-based
[6] = system: Streptococcus pyogenes; assay: Antibacterial activity against erythromycin-resistant Streptococcus pyogenes 2 clinical isolate assessed as bacterial growth inhibition incubated for 20 hrs by CLSI based broth microdilution method; assay type: functional
[7] = system: Staphylococcus aureus; assay: Antibacterial activity against Staphylococcus aureus clinical isolate incubated for 18 to 24 hrs; assay type: functional; conditions: time 18-24 hrs
[8] = system: Staphylococcus aureus; assay: Induction of resistance development in Staphylococcus aureus ATCC25923 assessed as fold increase in MIC at 0.5 times MIC measured after 32 days by multi-passage resistance assay relative to control; assay type: functional; conditions: time 32.0 day
[9] = target: T1, Cell division protein FtsZ (Bacillus subtilis) (UniProt A5Z1V5); assay: Induction of FtsZ polymerization in Bacillus subtilis preincubated for 10 mins followed by GTP addition measured upto 30 mins by absorbance based assay; conditions: dose 2.5-10 µg/ml, time 40.0 min
T1 sequence (whole entry): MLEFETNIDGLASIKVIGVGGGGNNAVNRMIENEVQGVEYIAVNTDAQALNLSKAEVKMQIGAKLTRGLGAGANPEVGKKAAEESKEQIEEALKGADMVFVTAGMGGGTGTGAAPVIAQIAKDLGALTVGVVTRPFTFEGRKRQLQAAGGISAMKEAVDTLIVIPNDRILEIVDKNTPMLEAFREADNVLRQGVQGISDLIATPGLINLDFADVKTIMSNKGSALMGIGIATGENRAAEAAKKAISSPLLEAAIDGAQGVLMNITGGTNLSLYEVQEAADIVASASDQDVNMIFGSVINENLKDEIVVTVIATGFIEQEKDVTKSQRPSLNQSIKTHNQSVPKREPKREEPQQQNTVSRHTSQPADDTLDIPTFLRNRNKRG

[10] = system: Bacillus subtilis; assay: Antibacterial activity against penicillin-susceptible Bacillus subtilis ATCC9372 assessed as bacterial growth inhibition incubated for 20 hrs by CLSI based broth microdilution method; assay type: functional
[11] = system: Staphylococcus aureus; assay: Effect on proton gradient of cytoplasmic membrane in Staphylococcus aureus ATCC25923 at 1 ug/ml measured after 20 mins by diSC35 dye based analysis; assay type: functional, organism-based; conditions: Cytoplasm membrane, dose 1.0 µg/ml
[12] = system: Staphylococcus aureus; assay: Disruption of inner membrane in Staphylococcus aureus ATCC25923 at 0.5 ug/ml measured after 12 mins by PI staining based analysis; assay type: functional, organism-based; conditions: dose 0.5 µg/ml
[13] = system: Staphylococcus aureus; assay: Antibacterial activity against Staphylococcus aureus clinical isolate assessed as bacterial growth inhibition incubated for 20 hrs by CLSI based broth microdilution method; assay type: functional
[14] = system: Acinetobacter baumannii; assay: Antibacterial activity against Acinetobacter baumannii ATCC19606 assessed as bacterial growth inhibition incubated for 20 hrs by CLSI based broth microdilution method; assay type: functional
[15] = system: Bacillus subtilis; assay: Induction of morphological change in Bacillus subtilis ATCC9372 assessed as increase in cell length at 0.5 times MIC by phase contrast microscopy; assay type: functional, organism-based
[16] = system: Enterococcus faecalis; assay: Antibacterial activity against vancomycin-susceptible Enterococcus faecalis ATCC29212 assessed as bacterial growth inhibition incubated for 20 hrs by CLSI based broth microdilution method; assay type: functional
[17] = system: Enterococcus faecalis; assay: Antibacterial activity against vancomycin-resistant Enterococcus faecalis ATCC51299 assessed as bacterial growth inhibition incubated for 20 hrs by CLSI based broth microdilution method; assay type: functional
[18] = system: Escherichia coli; assay: Induction of membrane potential depolarization in Escherichia coli ATCC25922 measured after 20 mins by diSC35 dye based spectroscopy; assay type: functional, organism-based
[19] = target: T1, Cell division protein FtsZ (Bacillus subtilis); assay: Induction of FtsZ polymerization in Bacillus subtilis at 2.5 to 10 ug/ml preincubated with compound followed by GTP addition by absorbance based assay; conditions: dose 2.5-10 µg/ml, time 40.0 min, TDE = time-dependent effect
[20] = system: Staphylococcus aureus; assay: Bactericidal activity against Staphylococcus aureus ATCC25923 assessed as log reduction in bacterial growth at 0.25 to 0.5 ug/ml measured for 9 to 12 hrs by time-kill assay; assay type: functional; conditions: dose 0.25-0.5 µg/ml; time 9-12 hrs
[21] = system: Escherichia coli; assay: Disruption of inner membrane in Escherichia coli ATCC25922 measured after 12 mins by PI staining based analysis; assay type: functional, organism-based
[22] = system: Klebsiella pneumoniae; assay: Antibacterial activity against Klebsiella pneumoniae ATCC BAA-1902 assessed as bacterial growth inhibition incubated for 20 hrs by CLSI based broth microdilution method; assay type: functional
[23] = system: Escherichia coli; assay: Antibacterial activity against penicillin-susceptible Escherichia coli ATCC25922 assessed as bacterial growth inhibition incubated for 20 hrs by CLSI based broth microdilution method; assay type: functional
[24] = system: Staphylococcus aureus; assay: Inhibition of biofilm formation of Staphylococcus aureus ATCC25923 at 0.5 ug/ml incubated for 20 hrs by crystal violet staining based analysis relative to control; assay type: functional
[25] = system: Staphylococcus aureus; assay: Selectivity ratio of MBC for erythromycin-susceptible Staphylococcus aureus ATCC25923 to MIC for erythromycin-susceptible Staphylococcus aureus ATCC25923; assay type: functional
[26] = target: T1, Cell division protein FtsZ (Bacillus subtilis); assay: Induction of FtsZ polymerization in Bacillus subtilis assessed as bundling of FtsZ protofilaments at 10 ug/ml preincubated for 15 mins followed by GTP addition measured after 10 mins by TEM analysis; conditions: dose 10.0 µg/ml, time 25.0 min
[27] = system: Staphylococcus aureus; assay: Inhibition of bacterial proliferation of Staphylococcus aureus ATCC25923 at 0.125 ug/ml measured for 24 hrs by time-kill assay; assay type: functional, organism-based; conditions: dose 0.125 µg/ml
[28] = system: Staphylococcus aureus; assay: Antibacterial activity against erythromycin-susceptible Staphylococcus aureus ATCC25923 assessed as bacterial growth inhibition incubated for 20 hrs by CLSI based broth microdilution method; assay type: functional
[29] = system: Staphylococcus aureus; assay: Antibacterial activity against methicillin-resistant Staphylococcus aureus ATCC43300 incubated for 18 to 20 hrs; assay type: functional; conditions: time 18-20 hrs
[30] = system: Escherichia coli; assay: Disruption of inner membrane in Escherichia coli ATCC25922 by PI staining based analysis; assay type: functional, organism-based; conditions: time 12.0 min, TDE = time-dependent effect
[31] = system: Staphylococcus aureus; assay: Disruption of inner membrane in Staphylococcus aureus ATCC25923 by PI staining based analysis; assay type: functional, organism-based; conditions: time 12.0 min, TDE = time-dependent effect
[32] = system: Staphylococcus aureus; assay: Antibacterial activity against Staphylococcus aureus ATCC25923 infected in Kunming mouse model assessed as bacterial growth reduction at 5 to 25 mg/kg, ip; assay type: functional, organism-based; conditions: dose 5-25 mg/kg
[33] = system: Acinetobacter baumannii; assay: Antibacterial activity against Acinetobacter baumannii ATCC19606 incubated for 18 to 24 hrs; assay type: functional; conditions: time 18-24 hrs
[34] = system: Staphylococcus aureus; assay: Induction of morphological change in Staphylococcus aureus ATCC25923 assessed as loss of bacterial membrane integrity at 16 times MIC incubated for 2 hrs by TEM analysis; assay type: functional, organism-based
[35] = system: Bacillus subtilis; assay: Antibacterial activity against penicillin-susceptible Bacillus subtilis ATCC9372 incubated for 18 to 24 hrs; assay type: functional; conditions: time 18-24 hrs

C[n+]1cc(-c2ccccc2)c(/C=C/c2ccc(C(C)(C)C)cc2)cc1-c1ccc(C(C)(C)C)cc1.[I-]
MIC [1]: 0.5 µg/mL
MIC [2]: 0.5 µg/mL
MIC [3]: 0.125 µg/mL
MIC [4]: 2 µg/mL
Activity [5]: Dose-Dependent Effect
MIC [6]: 2 µg/mL
MBC [7]: 0.125 µg/mL
fold change (FC) [8]: 2
Activity [9]: Dose-Dependent Effect
MIC [10]: 0.125 µg/mL
Activity [11]: Active
Activity [12]: Active
MIC [13]: 0.062 µg/mL
MIC [14]: 0.5 µg/mL
Activity [15]: Active
MIC [16]: 0.25 µg/mL
MIC [17]: 0.5 µg/mL
Activity [18]: Dose-Dependent Effect
Activity [19]: Tde
Activity [20]: 0 log10CFU/ml
Activity [21]: Dose-Dependent Effect
MIC [22]: 4 µg/mL
MIC [23]: 4 µg/mL
inhibition at 0.5 µg/mL [24]: 6.06%
Ratio [25]: 4
Activity [26]: Active
inhibition [27]: inactive
MIC [28]: 0.062 µg/mL
MBC [29]: 0.5 µg/mL
Activity [30]: Tde
Activity [31]: Tde
Activity [32]: Active
MBC [33]: 1 µg/mL
Activity [34]: Active
MBC [35]: 0.25 µg/mL
